From patent US6284726A, “Inhibition of angiogenesis by peptide analogs of high molecular weight kininogen domain 5” (Temple University - Of The Commonwealth System of Higher …, priority 2000, dated 2001)

Legend:
HUVEC cells = test: CyQUANT proliferation assay of bFGF-stimulated HUVEC; format: cell-based, human; conditions: 10 ng/ml bFGF; for Proliferation % Inhibition: 48 hours
Procedure: Cell proliferation was determined by using CyQUANT cell proliferation assay kit from Molecular Probes (catalog #C-7026).
HUVEC cells (50,000/well) in a 96 well microtiter plate were stimulated with 10 ng/ml bFGF in serum-free, M199 growth medium with or without HK peptide for 48 hours at 37° C. in a CO2 incubator. Cells were washed with serum-free medium and frozen at -40° C. Frozen cells were thawed and lysed with a lysis buffer containing the CyQUANT GR dye. Fluorescence was measured using a Cytofluor II Fluorescence Multi-well plate reader with excitation 485 nm and emission with 530 nm.
The percent inhibition of proliferation at a specific peptide concentration was determined for some peptides. For other peptides, an IC50 was calculated from a curve plotting inhibitor concentration versus percent inhibition over a inhibition range of ten to ninety percent inhibition.

HUVECs = test: Transwell migration of endothelial cells to vitronectin; format: cell-based, human; conditions: 0.27 μM; four hours at 37° C.
Procedure: The lower side of 8 μm pore transwell inserts (Costar, Inc.) were coated with 2 μg/ml of vitronectin for one hour and blocked with 2% bovine serum albumin in phosphate buffered saline for one hour. The inserts were then placed into 24 well culture dishes containing 500 μl migration buffer in the lower chamber. Twenty-five thousand HUVECs in 50 μl of migration buffer were added to the upper chamber of duplicate inserts containing 50 μl of a solution of 50 μg/ml GST-SEQ ID NO. 10 peptide in migration buffer (Herpes buffered M199 medium containing 1% BSA, […], […] and 0.2 μM MnCl2) or migration buffer alone. Cells were allowed to migrate from the upper to the lower chamber for four hours at 37° C. Nonmigratory cells were removed from the upper surface by wiping the upper side with an absorbent tip. Cells which migrated to the lower side of the transwell insert were then fixed for 15 minutes with 3.7% paraformaldehyde in phosphate buffered saline and stained with a 2% crystal violet solution. After extensive water washing to remove excess crystal violet, the number of cells which had migrated were counted in three representative high power (200X) fields per inset.

[1] = system: chorioallantoic membrane (CAM) of embryonated chicken eggs; test: In ovo chick chorioallantoic membrane (CAM) angiogenesis assay; format: in vivo; conditions: for inhibition of bFGF-stimulated angiogenesis (blood vessel branch points): bFGF-saturated filter disc on CAM, peptide 0-25 μg in 25 μl saline, 0.27 μM, applied 24 hours later
From the text: New vessels, quantified by blood vessel branching, occurred in response to bFGF, VEGF, or a combination of both. Accordingly, ten day old embryonated chicken eggs were candled to illuminate blood vessels under the shell. An area with a minimum of small blood vessel was identified. The chorioallantoic membrane (CAM) was dropped away from the egg shell in this area by grinding a small hole in the mineralized shell and applying pressure to the underlying inner shell membrane. This caused an air pocket to shift from the wide end of the egg to the identified area and forced a circular region of the CAM approximately 2 cm in diameter to drop away from the shell. A window was cut in the egg shell. A cortisone acetate pre-treated filter disc 5 mm in diameter that was saturated in 1 μg/mi bFGF, a combination of bFGF and VEGF, or saline and was placed on the CAM. The window in the shell was sealed with adhesive tape and the egg was incubated for four days. Peptide GST-SEQ ID NO:10 (0-25 μg in 25 μI saline; 0.27 μM) was applied to the saturated filter 24 hours later and was applied to the stimulated CAM. The CAM was then harvested on the fourth day of stimulation. Data were evaluated in terms of average number of blood vessel branch points per treatment group as well as percent of control using a video camera attached to a personal computer. Under the conditions of the assay, peptide GST-SEQ ID NO:10 inhibited bFGF-stimulated angiogenesis by 97% and bFGF/VEGF-stimulated angiogenesis by 94%. There was no inhibition of bFGF-stimulated angiogenesis by GST alone (<10% inhibition).

GST-Glu(448)-Ser(626) [GST-SEQ ID NO: 12]
Proliferation % Inhibition (HUVEC cells; peptide conc. 0.35 μM): 65%

GST-His(441)-Ser(626) [GST-SEQ ID NO: 8]
Proliferation % Inhibition (HUVEC cells; peptide conc. 0.39 μM): 100%

GST-Lys(420)-Asp(474) [GST-SEQ ID NO: 5]
Proliferation % Inhibition (HUVEC cells; peptide conc. 0.36 μM): 94%

GST-Lys(420)-Ser(513) [GST-SEQ ID NO: 10]
inhibition of HUVEC migration to vitronectin (HUVECs): 100%
IC50 (HUVEC cells; serum-free M199, 48 hours, read-out: IC50 (inhibition of endothelial cell proliferation)): < 0.03 µM
Proliferation % Inhibition (HUVEC cells; peptide conc. 0.27 μM): 100%
inhibition of bFGF-induced angiogenesis, as seen in FIG. 1D (in words) ([1]; bFGF plus GST fusion peptide, CAM): substantial inhibition
inhibition of bFGF-stimulated angiogenesis (blood vessel branch points) ([1]; harvested on fourth day): 97%
inhibition of bFGF/VEGF-stimulated angiogenesis (blood vessel branch points) ([1]; filter disc with combination of bFGF and VEGF on CAM, peptide 0.27 μM applied 24 hours later, harvested on fourth day): 94%

glutathione-S-transferase [GST, reference compound]
inhibition of bFGF-stimulated angiogenesis (blood vessel branch points) ([1]; harvested on fourth day): < 10%
